Results published in PubChem BioAssay AID248 (DTP/NCI, 2004).
Values joined by “and” are separate entries in the source; they are usually repeats but may differ in a detail not shown here. Equal values may be shown once. Toxic doses and inconclusive results are not listed. Cut-off read from the data, not from the text of the source: active = T/C of 150% or more; inactive = T/C below 125%.

System: L1210 leukemia ip in BDF1 mice, survival T/C
Assay: NCI In Vivo Anticancer Drug Screen. Data for tumor model L1210 Leukemia (intraperitoneal) in B6D2F1 (BDF1) mice
Settings: endpoint: mean survival time, higher = longer survival
How it was run: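 Value reflects the ratio of survival in compound-treated mice to survival in vehicle-treated controls, with both groups carrying the same transplanted tumor.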

[1] = dose: 100.0 mg/kg/injection, schedule: Q01DX009 (ip), vehicle: Klucel (hydroxypropylcellulose) (HPC)
[2] = dose: 200.0 mg/kg/injection, schedule: Q01DX009 (ip), vehicle: Klucel (hydroxypropylcellulose) (HPC)
[3] = dose: 100.0 mg/kg/injection, schedule: Q04DX003 (ip), vehicle: Klucel (hydroxypropylcellulose) (HPC)
[4] = dose: 200.0 mg/kg/injection, schedule: Q04DX003 (ip), vehicle: Klucel (hydroxypropylcellulose) (HPC)
[5] = dose: 100.0 mg/kg/injection, schedule: Q01DX001 (ip), vehicle: saline
[6] = dose: 200.0 mg/kg/injection, schedule: Q01DX001 (ip), vehicle: saline
[7] = dose: 400.0 mg/kg/injection, schedule: Q01DX001 (ip), vehicle: saline
[8] = dose: 100.0 mg/kg/injection, schedule: Q04DX003 (ip), vehicle: saline with Tween-80
[9] = dose: 200.0 mg/kg/injection, schedule: Q04DX003 (ip), vehicle: saline with Tween-80
[10] = dose: 12.5 mg/kg/injection, schedule: Q01DX009 (ip), vehicle: saline with Tween-80
[11] = dose: 12.5 mg/kg/injection, schedule: Q04DX003 (ip), vehicle: saline with Tween-80
[12] = dose: 25.0 mg/kg/injection, schedule: Q01DX009 (ip), vehicle: saline with Tween-80
[13] = dose: 25.0 mg/kg/injection, schedule: Q04DX003 (ip), vehicle: saline with Tween-80
[14] = dose: 100.0 mg/kg/injection, schedule: Q04DX003 (ip), vehicle: saline
[15] = dose: 400.0 mg/kg/injection, schedule: Q04DX003 (ip), vehicle: saline
[16] = dose: 400.0 mg/kg/injection, schedule: Q04DX003 (ip), vehicle: Klucel (hydroxypropylcellulose) (HPC)
[17] = dose: 400.0 mg/kg/injection, schedule: Q01DX009 (ip), vehicle: Klucel (hydroxypropylcellulose) (HPC)
[18] = dose: 50.0 mg/kg/injection, schedule: Q04DX002 (ip), vehicle: Klucel (hydroxypropylcellulose) (HPC)
[19] = dose: 100.0 mg/kg/injection, schedule: Q04DX002 (ip), vehicle: Klucel (hydroxypropylcellulose) (HPC)
[20] = dose: 200.0 mg/kg/injection, schedule: Q04DX002 (ip), vehicle: Klucel (hydroxypropylcellulose) (HPC)
[21] = dose: 400.0 mg/kg/injection, schedule: Q04DX002 (ip), vehicle: Klucel (hydroxypropylcellulose) (HPC)
[22] = dose: 100.0 mg/kg/injection, schedule: Q01DX001 (ip), vehicle: carboxymethylcellulose (CMC)
[23] = dose: 200.0 mg/kg/injection, schedule: Q01DX001 (ip), vehicle: carboxymethylcellulose (CMC)
[24] = dose: 400.0 mg/kg/injection, schedule: Q01DX001 (ip), vehicle: carboxymethylcellulose (CMC)
[25] = dose: 50.0 mg/kg/injection, schedule: Q01DX009 (ip), vehicle: saline with Tween-80
[26] = dose: 50.0 mg/kg/injection, schedule: Q01DX009 (ip), vehicle: Klucel (hydroxypropylcellulose) (HPC)

Measured: T/C

Nc1nc(-c2ccccc2)c(CCCOc2ccccc2)c(=O)[nH]1
inactive: dose: 12.5 mg/kg/injection, schedule: Q01DX009 (ip), vehicle: gum acacia 95 % of control | dose: 25.0 mg/kg/injection, schedule: Q01DX009 (ip), vehicle: gum acacia 109 % of control | dose: 50.0 mg/kg/injection, schedule: Q01DX009 (ip), vehicle: gum acacia 100 % of control | dose: 100.0 mg/kg/injection, schedule: Q01DX009 (ip), vehicle: gum acacia 92 % of control and 90 % of control | dose: 400.0 mg/kg/injection, schedule: Q01DX009 (ip), vehicle: gum acacia 96 % of control

CCN(CC)c1ccc(NC(=S)Nc2cccc(C(F)(F)F)c2)c(C)c1
inactive: [1] 93 % of control | [2] 90 % of control

O=C(COc1ccc(Cl)cc1Cl)Nc1ncn[nH]1
inactive: dose: 100.0 mg/kg/injection, schedule: Q01DX001 (ip), vehicle: Klucel (hydroxypropylcellulose) (HPC) 101 % of control | dose: 200.0 mg/kg/injection, schedule: Q01DX001 (ip), vehicle: Klucel (hydroxypropylcellulose) (HPC) 104 % of control | dose: 400.0 mg/kg/injection, schedule: Q01DX001 (ip), vehicle: Klucel (hydroxypropylcellulose) (HPC) 95 % of control

Cc1ccc(S(=O)(=O)COS(=O)(=O)C(F)(F)F)cc1
inactive: [3] 93 % of control | [4] 93 % of control

O=C(NCCBr)C(F)(F)F
inactive: dose: 25.0 mg/kg/injection, schedule: Q01DX009 (ip), vehicle: saline 113 % of control | dose: 50.0 mg/kg/injection, schedule: Q01DX009 (ip), vehicle: saline 103 % of control | [5] 104 % of control | dose: 100.0 mg/kg/injection, schedule: Q01DX009 (ip), vehicle: saline 105 % of control | [6] 109 % of control | [7] 112 % of control

O=C(O)C1=C/C(=C\C=[N+]2c3cc(O)c(OC4OC(CO)C(O)C(O)C4O)cc3CC2C(=O)[O-])CC(C(=O)O)N1 (centres undefined)
inactive: [8] 97 % of control | [9] 94 % of control | dose: 400.0 mg/kg/injection, schedule: Q04DX003 (ip), vehicle: saline with Tween-80 95 % of control

C=CC[n+]1ccccc1C(c1ccccc1)c1ccccc1
inactive: dose: 6.25 mg/kg/injection, schedule: Q01DX009 (ip), vehicle: saline with Tween-80 108 % of control | [10] 97 % of control | [11] 95 % of control | [12] 92 % of control | [13] 103 % of control

CC1(C)SCC(C(=O)N2CCCC2C(=O)OC2CCCCC2)N1C=O (centres undefined)
inactive: [14] 92 % of control | [15] 97 % of control

CCCCCCCN(CCCCCCC)CC(O)c1c2ccccc2cc2c1ccc1ccccc12 (centres undefined)
inactive: [1] 91 % of control | [3] 101 % of control | [2] 104 % of control | [4] 93 % of control | [16] 93 % of control

O=Cc1c(Cl)c(Cl)c(C=O)c(Cl)c1Cl
inactive: dose: 50.0 mg/kg/injection, schedule: Q01DX001 (ip), vehicle: saline 103 % of control | [5] 103 % of control | [1] 107 % of control | [3] 102 % of control | [6] 100 % of control | [2] 115 % of control | [4] 101 % of control | [7] 105 % of control | [17] 103 % of control | [16] 98 % of control

N#C/C(=C\c1ccccc1)c1cccc(Cl)c1
inactive: dose: 100.0 mg/kg/injection, schedule: Q01DX009 (ip), vehicle: other 95 % of control | dose: 200.0 mg/kg/injection, schedule: Q01DX009 (ip), vehicle: other 87 % of control

CCOC(=O)C(C#N)c1cccc(C)c1 (centres undefined)
inactive: [8] 95 % of control | [9] 98 % of control

NC(=Nc1ccc(N=C(N)N[N+](=O)[O-])cc1)N[N+](=O)[O-]
inactive: dose: 25.0 mg/kg/injection, schedule: Q04DX002 (ip), vehicle: Klucel (hydroxypropylcellulose) (HPC) 107 % of control | [18] 96 % of control | [19] 96 % of control

CNC(=O)Oc1cc2ccccc2cc1C(=O)Nc1ccccc1
inactive: [19] 97 % of control | [20] 100 % of control | [21] 113 % of control

CC(=O)CC(SCCSCCSC(CC(C)=O)c1ccccc1)c1ccccc1 (centres undefined)
inactive: dose: 50.0 mg/kg/injection, schedule: Q01DX001 (ip), vehicle: carboxymethylcellulose (CMC) 89 % of control | [22] 89 % of control | [23] 97 % of control | [24] 97 % of control

CS(=O)(=O)OC1COC(c2ccccc2)OC1C1OC(c2ccccc2)OCC1OS(C)(=O)=O (centres undefined)
inactive: [18] 98 % of control | [19] 98 % of control | [20] 109 % of control

CCCNC(=O)Oc1cccc(C)c1
inactive: [19] 100 % of control | [20] 106 % of control | [21] 110 % of control

NS(=O)(=O)O
inactive: [10] 103 % of control | [12] 95 % of control | [25] 89 % of control

Cc1cccc(C)c1CNC(=O)NCCCl
inactive: [3] 98 % of control | [4] 95 % of control | [16] 104 % of control

CCCCC(I)C(C)(C)[n+]1ccccc1 (centres undefined)
inactive: [10] 119 % of control | [11] 100 % of control | [12] 106 % of control | [13] 96 % of control | [25] 101 % of control | dose: 50.0 mg/kg/injection, schedule: Q04DX003 (ip), vehicle: saline with Tween-80 100 % of control

C=CCNC(=S)Nc1ncn[nH]1
inactive: dose: 75.0 mg/kg/injection, schedule: Q01DX001 (ip), vehicle: carboxymethylcellulose (CMC) 103 % of control | dose: 150.0 mg/kg/injection, schedule: Q01DX001 (ip), vehicle: carboxymethylcellulose (CMC) 104 % of control | dose: 300.0 mg/kg/injection, schedule: Q01DX001 (ip), vehicle: carboxymethylcellulose (CMC) 90 % of control

CCOc1ccc2[nH]c(=S)sc2c1
inactive: [26] 93 % of control | [1] 102 % of control | [3] 105 % of control | [2] 86 % of control | [4] 89 % of control | [16] 100 % of control

CC(O)c1cccc(NC(=O)NC2CCCCC2)c1 (centres undefined)
inactive: [1] 95 % of control | [2] 101 % of control | [17] 95 % of control

NC(=O)/C(=C\c1ccc(N=Nc2ccc(/C=C(\C(N)=O)c3cccc4ccccc34)cc2)cc1)c1cccc2ccccc12
inactive: [3] 93 % of control | [4] 99 % of control | [16] 89 % of control

COc1ccc(-c2ccc(CC(N)=O)cc2)cc1Cl
inactive: [22] 91 % of control | [23] 94 % of control | [24] 89 % of control

CC(C)OP(=S)(S)OC(C)C
inactive: [14] 112 % of control | dose: 200.0 mg/kg/injection, schedule: Q04DX003 (ip), vehicle: saline 96 % of control | [15] 102 % of control

O=C(Nc1ccc(S(=O)(=O)NC2CCCCC2)cc1)Oc1ccccc1C(=O)O
inactive: [5] 100 % of control | [6] 91 % of control | [7] 100 % of control

Nc1c(Br)cc(Br)c(C(=O)O)c1Br
inactive: [26] 103 % of control | [1] 101 % of control | [2] 95 % of control

Cc1cccc(CN=C(N)CCl)n1
inactive: [19] 98 % of control | [20] 95 % of control
